Results: patent publication US7109380B2, “Cyclopentenedione antifungal compounds and methods for their use” (The University of Mississippi, priority 2004, dated 2006)
Values after ≈ are worked out from the molar mass of the structure shown. Values joined by “and” are separate entries in the source; they are usually repeats but may differ in a detail not shown here. Equal entries are not always repeated. Where two headings read alike, the source gives them in different places. One block for each compound: values may come before it.

Columns and labels:
C. krusei ATCC 6258 = assay: In vitro antimicrobial assay (modified NCCLS), Candida media pH 4.5; format: cell-based, Candida krusei; conditions: C. krusei ATCC 6258, pH 4.5; for IC50: Pichia kudriavzevii, ATCC6258, read-out: IC50 (50% inhibitory concentration)
C. glabrata ATCC 90030 = assay: as above; format: cell-based, Candida glabrata; conditions: C. glabrata ATCC 90030, pH 4.5; for IC50: read-out: IC50 (50% inhibitory concentration)
C. albicans ATCC 90028 = assay: as above; format: cell-based, Candida albicans; conditions: C. albicans ATCC 90028, pH 4.5, Table 3; for IC50: read-out: IC50 (50% inhibitory concentration)
[1] = system: Candida albicans ATCC 90028; assay: In vitro antifungal susceptibility testing (modified NCCLS method), media pH 7.3; format: cell-based; conditions: Candida albicans ATCC 90028, Table 1
[2] = system: Cryptococcus neoformans ATCC 90113; assay: In vitro antifungal susceptibility testing (modified NCCLS method); format: cell-based; conditions: for IC50: read-out: IC50 (50% inhibitory concentration)
[3] = system: M. intracellulare ATCC 23068; assay: In vitro antibacterial assay (modified method of Franzblau, Alamar Blue); format: cell-based; conditions: Mycobacterium intracellulare, ATCC23068, M. intracellulare ATCC 23068; for IC50: read-out: IC50 (50% inhibitory concentration); for MBC: read-out: MBC (Minimum Bactericidal Concentration)
[4] = system: several cancer cell lines; conditions: background; cited from earlier work
human chymase = human chymase (Homo sapiens, UniProt P23946); conditions: background; cited from earlier work
[5] = system: wheat leaf rust caused by Puccinia recondite; conditions: background; cited from earlier work
[6] = Cr. neoformans ATCC 90113, Table 3
[7] = Cryptococcus neoformans ATCC 90113, Table 1
[8] = Nakaseomyces glabratus, ATCC90030
[9] = Nakaseomyces glabratus, ATCC90030, read-out: MFC
[10] = Nakaseomyces glabratus, ATCC90030, read-out: MIC
[11] = Candida albicans, ATCC90028, read-out: MFC
[12] = Candida albicans, ATCC90028, read-out: MIC
[13] = Cryptococcus neoformans, ATCC90113, Cr. neoformans ATCC 90113, Table 3

Sequence of human chymase (P23946 22-247): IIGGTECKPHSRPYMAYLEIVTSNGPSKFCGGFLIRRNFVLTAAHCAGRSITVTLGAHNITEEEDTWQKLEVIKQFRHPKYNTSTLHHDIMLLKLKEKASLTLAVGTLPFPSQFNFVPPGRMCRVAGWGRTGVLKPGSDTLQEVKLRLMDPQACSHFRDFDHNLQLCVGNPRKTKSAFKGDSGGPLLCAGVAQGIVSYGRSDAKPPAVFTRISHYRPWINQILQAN

melting point: 125 °C and 124 °C | IC50 (C. krusei ATCC 6258): 4.5 µg/mL (≈ 18.7 µM) | IC50 (C. glabrata ATCC 90030; [8]): 1.5 µg/mL (≈ 6.24 µM) | MIC (C. glabrata ATCC 90030; [10]): 2.5 µg/mL (≈ 10.4 µM) | IC50 (C. albicans ATCC 90028; Candida albicans, ATCC90028): 1 µg/mL (≈ 4.16 µM) | MIC (C. albicans ATCC 90028; [12]): 2.5 µg/mL (≈ 10.4 µM) | MIC ([1]; ATCC90028, read-out: MIC (Minimum Inhibitory Concentration)): 50 µg/mL (≈ 208 µM) | MIC [3]: 20 µg/mL (≈ 83.2 µM) | IC50 [3]: 10 µg/mL (≈ 41.6 µM) | IC50 [2, 13]: 20 µg/mL (≈ 83.2 µM)
SMILES: CC1=CC(=O)/C(=C(O)/C=C/c2ccccc2)C1=O [Compound 2, coruscanone B]
MFC (C. glabrata ATCC 90030; [9]): 5 µg/mL (≈ 20.8 µM) | MFC (C. albicans ATCC 90028; [11]): 5 µg/mL (≈ 20.8 µM)

IC50 (C. krusei ATCC 6258): 8 µg/mL (≈ 29.8 µM) | IC50 (C. glabrata ATCC 90030; [8]): 4.5 µg/mL (≈ 16.8 µM) | MIC (C. glabrata ATCC 90030; [10]): 10 µg/mL (≈ 37.3 µM) | IC50 (C. albicans ATCC 90028; Candida albicans, ATCC90028): 2 µg/mL (≈ 7.45 µM) | MIC (C. albicans ATCC 90028; [12]): 5 µg/mL (≈ 18.6 µM) | MIC [3]: 20 µg/mL (≈ 74.5 µM) | IC50 [3]: 7.5 µg/mL (≈ 28 µM) | IC50 [2, 13]: 2 µg/mL (≈ 7.45 µM) | MIC ([2]; Cryptococcus neoformans, ATCC90113, Cr. neoformans ATCC 90113, Table 3, read-out: MIC): 20 µg/mL (≈ 74.5 µM)
SMILES: CCOC(/C=C/c1ccccc1)=C1/C(=O)C=C(C)C1=O [Compound 7]
MFC (C. glabrata ATCC 90030; [9]): 20 µg/mL (≈ 74.5 µM) | MFC (C. albicans ATCC 90028; [11]): 10 µg/mL (≈ 37.3 µM) | MBC [3]: 20 µg/mL (≈ 74.5 µM)

IC50 (C. krusei ATCC 6258): 9 µg/mL (≈ 31.9 µM) | IC50 (C. glabrata ATCC 90030; [8]): 5.5 µg/mL (≈ 19.5 µM) | IC50 (C. albicans ATCC 90028; Candida albicans, ATCC90028): 1 µg/mL (≈ 3.54 µM) | MIC (C. albicans ATCC 90028; [12]): 10 µg/mL (≈ 35.4 µM) | MIC [3]: 20 µg/mL (≈ 70.8 µM) | IC50 [3]: 15 µg/mL (≈ 53.1 µM) | IC50 [2, 13]: 4.5 µg/mL (≈ 15.9 µM)
SMILES: CC(=O)OC(/C=C/c1ccccc1)=C1/C(=O)C=C(C)C1=O [Compound 8]
MBC [3]: 20 µg/mL (≈ 70.8 µM)

Second part, the compound before the results:

SMILES: C[C@@H]1[C@H](O)[C@@H](C)/C=C/C=C/C=C/C=C/C=C/C=C/C=C/[C@H](O[C@@H]2O[C@H](C)[C@@H](O)[C@H](N)[C@@H]2O)C[C@@H]2O[C@](O)(C[C@@H](O)C[C@@H](O)[C@H](O)CC[C@@H](O)C[C@@H](O)CC(=O)O[C@H]1C)C[C@H](O)[C@H]2C(=O)O [Amphotericin B, reference compound]
IC50 (50% inhibitory concentration) (C. krusei ATCC 6258): 0.45 µg/mL (≈ 0.487 µM) | MFC (C. krusei ATCC 6258): 1.25 µg/mL (≈ 1.35 µM) | MIC (C. krusei ATCC 6258): 1.25 µg/mL (≈ 1.35 µM) | IC50 (50% inhibitory concentration) (C. glabrata ATCC 90030): 0.20 µg/mL (≈ 0.216 µM) | MFC (C. glabrata ATCC 90030): 1.25 µg/mL (≈ 1.35 µM) | MIC (C. glabrata ATCC 90030): 1.25 µg/mL (≈ 1.35 µM) | IC50 (50% inhibitory concentration) (C. albicans ATCC 90028): 0.45 µg/mL (≈ 0.487 µM) | MFC (C. albicans ATCC 90028): 1.25 µg/mL (≈ 1.35 µM) | MIC (C. albicans ATCC 90028): 1.25 µg/mL (≈ 1.35 µM) | MFC (Minimum Fungicidal Concentration) [1]: 5.00 µg/mL (≈ 5.41 µM) | MIC (Minimum Inhibitory Concentration) [1]: 2.50 µg/mL (≈ 2.71 µM) | IC50 (50% inhibitory concentration) [2, 6]: 0.50 µg/mL (≈ 0.541 µM) | MFC [2, 6]: 1.25 µg/mL (≈ 1.35 µM) | MIC [2, 6]: 1.25 µg/mL (≈ 1.35 µM) | MFC (Minimum Fungicidal Concentration) [2, 7]: 2.5 µg/mL (≈ 2.71 µM) | MIC (Minimum Inhibitory Concentration) [2, 7]: 2.5 µg/mL (≈ 2.71 µM)

SMILES: COC(/C=C/c1ccccc1)=C1C(=O)C(OC)=C(OC)C1=O [methyllinderone]
Cytotoxicity (in words) [4]: cytotoxic | Inhibition of human chymase (in words) (human chymase): moderate inhibitor

SMILES: COC1=CC(=O)/C(=C(\C=C\c2ccccc2)OC)C1=O [methyllucidone]
Antifungal activity against wheat leaf rust (in words) [5]: moderately antifungal activity
